Source: patent publication US20240181022A1, “AMURINS LYSINS, AND LYSIN-ANTIMICROBIAL PEPTIDE (AMP) CONSTRUCTS ACTIVE AGAINST GRAM-NEGATIVE BACTERIA” (priority 2021, published 2024)
Where no end group is shown, it is not given here. [ ]: non-standard residue; d: D form.

Columns and labels:
[1] = test system: M. smegmatis; test: MIC against M. smegmatis; format: cell-based, Mycobacterium smegmatis; conditions: M. smegmatis (MC 155); CAAT media
[2] = test system: M. fortuitum; test: MIC against M. fortuitum; format: cell-based, Mycobacterium fortuitum; conditions: M. fortuitum (ATCC 6841); CAAT media
[3] = test system: M. scrofulaceum; test: MIC against M. scrofulaceum; format: cell-based, Mycobacterium scrofulaceum; conditions: M. scrofulaceum (ATCC 19981); CAAT media
[4] = test system: M. intracellulare; test: MIC against M. intracellulare; format: cell-based, Mycobacterium intracellulare; conditions: M. intracellulare (ATCC 13950); CAAT media
[5] = test system: M. abscessus; test: MIC against MDR M. abscessus isolates; format: cell-based, Mycobacterium abscessus; conditions: 7 days; for MIC: AST media (CAAT)
[6] = test system: A. dolens; test: MIC by broth microdilution against A. dolens; format: cell-based, Achromobacter dolens; conditions: A. dolens isolates; for MIC Range: in µg/mL
Description: (§1) MIC values were determined using a modification of the standard broth microdilution reference method defined by the Clinical and Laboratory Standards Institute (CLSI), CLSL. 2015. Methods for Dilution Antimicrobial Susceptibility Tests for Bacteria That Grow Aerobically; Approved Standard-10th Edition. Clinical and Laboratory Standards Institute, Wayne, PA. The modification was based on the replacement of Mueller Hinton Broth with either CAA media (with and without NaCl) or CAA supplemented with 2.5% human serum. MIC is the minimum concentration of peptide sufficient to suppress at least 80% of the bacterial growth compared to control.
(§2) Based on these nine most prevalent strains, direct lytic agents, including GN370, AM1, AM2, and AM3, were evaluated against various isolates from each of the 9 strains. MICs and MBECs (Example 3) were determined, and a sputum inhibition test was conducted, as described below in Example 5.
(§3) The MICs for were determined as described below using the broth microdilution method for meropenem, GN370, AM1, AM2, and AM3. The results are shown below in Tables 8-12.

[7] = test system: B. cenocepacia; test: MIC by broth microdilution against B. cenocepacia; format: cell-based, Burkholderia cenocepacia; conditions: B. cenocepacia isolates
Description: as §1, §2, §3

[8] = test system: B. gladioli; test: MIC by broth microdilution against B. gladioli; format: cell-based, Burkholderia gladioli; conditions: B. gladioli isolates; for MIC Range: in µg/mL
Description: as §1, §2, §3

[9] = test system: P. apista; test: MIC by broth microdilution against P. apista; format: cell-based, Pandoraea apista; conditions: P. apista isolates
Description: as §1, §2, §3

[10] = test system: A. xylosoxidans
Description: (§4) Biofilms are then washed and treated with e.g., a 2-fold dilution series of the lysin in TSBg at e.g., 37° C. for 24 hours. After treatment, wells are washed, air-dried at e.g., 37° C. and stained with e.g., 0.05% crystal violet for 10 minutes.
(§5) The antibiofilm activity of GN370, AM1, AM2, and AM3 was evaluated against various Gram-negative bacteria prevalent in cystic fibrosis patients, including P. aeruginosa, S. maltophilia, and A. xylosoxidans.
(§6) The MBEC (after 2-hour treatments) was determined as described in Jones and Wozniak, PsI Produced by Mucoid Pseudomonas aeruginosa Contributes to the Establishment of Biofilms and Immune Evasion, Am. […] Microbiol.

[11] = test system: B. multivorans
Description: as §4, §5, §6

[12] = test system: S. maltophilia; conditions: for antibiofilm activity (MBEC) against S. maltophilia: 2-hour treatments
Description: as §4, §5, §6

[13] = test system: P. aeruginosa; test: Time-kill assay in cystic fibrosis patient sputum, P. aeruginosa; format: cell-based, Pseudomonas aeruginosa; conditions: for effect of sputum on antibacterial activity: 10% CF sputum vs no sputum; for killing by 1 hour, maintained by 24 hours: time-kill
Source text: Sputum from 5 cystic fibrosis patients was pooled. The resulting mixture was not filtered, as it was very dense and not amenable to sterilization by filtration. Sputum is known to be a complex mixture of DNA, carbohydrates, and lipids ([…], 2016). As used herein, the term “sputum” refers to the mucus present in the respiratory tract of an animal, such as a human. Sputum may increase in thickness due to the irritation or infection, including bacterial infection, and in some instances, may be expelled by the animal while coughing. In certain instances, cystic fibrosis may be characterized by the presence of a thick, sticky mucus or sputum present in the lungs of cystic fibrosis patients. The activity of GN370, AM1, AM2, AM3, and meropenem was determined in the sputum using a time-kill assay format as disclosed in Zhang et al., Antimicrobial peptide therapeutics for cystic fibrosis, Antimicrobial Agents Chemother. 2005; 49(7):2921-2927. […] Untreated controls were included in addition to pretreatment plating (t=0) for a baseline CFU determination. Activity was also determined in the absence of sputum for comparison to activity observed in the presence of sputum.

[14] = test system: P. aeruginosa; test: Serial passage resistance development study, P. aeruginosa; format: cell-based, Pseudomonas aeruginosa; conditions: P. aeruginosa strain CFS 1292, Day 28
[15] = test system: A. ruhlandii; format: cell-based, Achromobacter ruhlandii
Description: (§7) The MBEC (after 2-hour treatments) was determined as described in Jones and Wozniak, PsI Produced by Mucoid Pseudomonas aeruginosa Contributes to the Establishment of Biofilms and Immune Evasion, Am. Soc. Microbiol. 2017, 8(3):e00864-17. Meropenem and tobramycin were included as controls and were both poorly active, with MBEC90 values of >256 μg/mL (data not shown).

[16] = test system: A. dolens; format: cell-based, Achromobacter dolens
Description: as §7

[17] = M. abscessus strain BK51403 (ATCC 19977)

“MRLKMARRRYRLPRRRSRRLFSRTALRMHPRNRLRRIMRGGIRF [AM1]” showed an MIC [1] of 4 µg/mL, an MIC [2] of 2 µg/mL and an MIC [3] of 0.5 µg/mL. For the same substance, the MIC [4] was 0.5 µg/mL, the “activity (MIC) against M. abscessus” value ([5]; 5 clinical MDR strains and 1 ATCC strain, CAAT) was “highly active” and the MIC ([5]; M. abscessus strain BK51402) was 1 µg/mL. The MIC [5, 17] was 2 µg/mL, the MIC ([5]; M. abscessus strain BK51408) was 4 µg/mL and the MIC ([5]; M. abscessus strain BK55096) was 1 µg/mL. The MIC ([5]; M. abscessus strain BK55691) was 1 µg/mL, the MIC ([5]; M. abscessus strain BK58156) was 2 µg/mL and the MIC50 [6] was 1 µg/mL. The MIC90 [6] was 2 µg/mL, the “MIC Range” value [6] was 0.06-4 and the MIC50 [7] was over 128 µg/mL. It also gave an MIC90 [7] of over 128 µg/mL, an MIC50 [8] of 8 µg/mL and an MIC90 [8] of 64 µg/mL. The “MIC Range” value [8] was 0.03-128, the MIC50 [9] was 64 µg/mL and the MIC90 [9] was over 128 µg/mL. For the same substance, the MBEC50 [10] was 0.5 µg/mL, the MBEC90 [10] was 1 µg/mL and the “MBEC Range” value [10] was 0.125 to 2 µg/mL. The “antibiofilm activity (MBEC) against A. xylosoxidans” value ([10]; 2-hour treatments) was “highly active”, the MBEC50 [11] was 2 µg/mL and the MBEC90 [11] was 4 µg/mL. For the same substance, the “MBEC Range” value [11] was 2 to 4 µg/mL, the “antibiofilm activity (MBEC) against B. multivorans” value ([11]; 2-hour treatments) was “highly active” and the MBEC50 [12] was 1 µg/mL. For the same substance, the MBEC90 [12] was 2 µg/mL, the “MBEC Range” value [12] was 0.25 to 2 µg/mL and the “antibiofilm activity (MBEC) against S. maltophilia” value [12] was “highly active”. The “effect of sputum on antibacterial activity” value [13] was “not inhibited”, the “Log10 CFU/mL of sputum” value ([13]; absence of sputum, 1 hr) was 2.3 Log10 CFU/mL of sputum and the “Log10 CFU/mL of sputum” value ([13]; absence of sputum, 3 hr) was 2.3 Log10 CFU/mL of sputum. The “Log10 CFU/mL of sputum” value ([13]; absence of sputum, 24 hr) was 2.3 Log10 CFU/mL of sputum, the “Log10 CFU/mL of sputum” value ([13]; presence of 10% sputum, 1 hr) was 2.3 Log10 CFU/mL of sputum and the “Log10 CFU/mL of sputum” value ([13]; presence of 10% sputum, 3 hr) was 2.3 Log10 CFU/mL of sputum. The “Log10 CFU/mL of sputum” value ([13]; presence of 10% sputum, 24 hr) was 2.3 Log10 CFU/mL of sputum, the “killing by 1 hour, maintained by 24 hours” value [13] was “complete killing” and the “change in MIC over serial passage” value [14] was “no significant changes”. The MBEC50 [15] was 16 µg/mL, the MBEC90 [15] was 16 µg/mL and the “MBEC Range” value [15] was 2 to 16 µg/mL. The MBEC50 [16] was 2 µg/mL, the MBEC90 [16] was 4 µg/mL and the “MBEC Range” value [16] was 1 to 8 µg/mL.

With “M[dR]L[dK]MA[dR][dR][dR]Y[dR]LP[dR][dR][dR]S[dR][dR]LFS[dR]TAL[dR]MHP[dR]N[dR]L[dR][dR]IM[dR]GGI[dR]F [AM2]” the MIC [1] was 0.5 µg/mL, the MIC [2] was 4 µg/mL and the MIC [3] was 16 µg/mL. It also gave an MIC [4] of 0.5 µg/mL, an MIC ([5]; M. abscessus strain BK51402) of 2 µg/mL and an MIC [5, 17] of 4 µg/mL. It also gave an MIC ([5]; M. abscessus strain BK51408) of 8 µg/mL, an MIC ([5]; M. abscessus strain BK55096) of 4 µg/mL and an MIC ([5]; M. abscessus strain BK55691) of 1 µg/mL. It also gave an MIC ([5]; M. abscessus strain BK58156) of 1 µg/mL, an MIC50 [6] of 4 µg/mL and an MIC90 [6] of 8 µg/mL. For the same substance, the “MIC Range” value [6] was 0.016-16, the MIC50 [7] was over 128 µg/mL and the MIC90 [7] was over 128 µg/mL. For the same substance, the MIC50 [8] was 4 µg/mL, the MIC90 [8] was 8 µg/mL and the “MIC Range” value [8] was 0.016-16. For the same substance, the MIC50 [9] was over 128 µg/mL, the MIC90 [9] was over 128 µg/mL and the MBEC50 [10] was 2 µg/mL. The MBEC90 [10] was 8 µg/mL, the “MBEC Range” value [10] was 0.125 to 32 µg/mL and the MBEC50 [11] was 2 µg/mL. The MBEC90 [11] was 16 µg/mL, the “MBEC Range” value [11] was 1 to 16 µg/mL and the MBEC50 [12] was 1 µg/mL. The MBEC90 [12] was 2 µg/mL, the “MBEC Range” value [12] was 0.125 to 4 µg/mL and the “antibiofilm activity (MBEC) against S. maltophilia” value [12] was “highly active”. For the same substance, the “effect of sputum on antibacterial activity” value [13] was “not inhibited”, the “Log10 CFU/mL of sputum” value ([13]; absence of sputum, 1 hr) was 2.3 Log10 CFU/mL of sputum and the “Log10 CFU/mL of sputum” value ([13]; absence of sputum, 3 hr) was 2.3 Log10 CFU/mL of sputum. For the same substance, the “Log10 CFU/mL of sputum” value ([13]; absence of sputum, 24 hr) was 2.3 Log10 CFU/mL of sputum, the “Log10 CFU/mL of sputum” value ([13]; presence of 10% sputum, 1 hr) was 2.3 Log10 CFU/mL of sputum and the “Log10 CFU/mL of sputum” value ([13]; presence of 10% sputum, 3 hr) was 2.3 Log10 CFU/mL of sputum. For the same substance, the “Log10 CFU/mL of sputum” value ([13]; presence of 10% sputum, 24 hr) was 2.3 Log10 CFU/mL of sputum, the “killing by 1 hour, maintained by 24 hours” value [13] was “complete killing” and the “change in MIC over serial passage” value [14] was “no significant changes”. The MBEC50 [15] was 8 µg/mL, the MBEC90 [15] was 32 µg/mL and the “MBEC Range” value [15] was 1 to 32 µg/mL. The MBEC50 [16] was 4 µg/mL, the MBEC90 [16] was 8 µg/mL and the “MBEC Range” value [16] was 1 to 8 µg/mL.
